This assay deals with T1, ATX activity in plasma (Mus musculus, UniProt Q9R1E6).
T1 construct: from tissue; host or cells: plasma of female C57BL/6J mice (bleomycin-induced lung fibrosis model)
Kind of assay: ATX activity in plasma in the mouse bleomycin-induced lung fibrosis model. The class given is in vivo, female C57BL/6J mouse. To be noted: 30 mg/kg, bid, oral, 14 days; FIG. 5. On the procedure: A compound administration solution prepared by wet pulverization in a mixer mill (type: MM400) for 10 min and adjusting to a given concentration with 0.5% aqueous carboxymethylcellulose solution was orally administered to male Wistar rat (5-week-old when used) at 5 mL/kg. Blood samples were collected from the cervical vein over time at 8 to 24 hr after administration. The blood was heparin-treated using a micro blood collection tube Capiject (CJ-AL, TERUMO CORPORATION), and the plasma was separated by centrifugation (4° C., 12,000 rpm, for 2 min), and preserved at −80° C. […] The measurement of ATX activity in plasma was evaluated using the concentration of choline in the plasma, which was liberated from lysophosphatidylcholine (substrate of ATX) by the lysophospholipase D activity of ATX, as an index. […] The reaction mixture (10 μL) after reaction for 6 hr and 45 μL of reagent R^1 solution (100 mM Tris-HCl pH 8.0, 0.5 mM TOOS, 10 U/mL peroxidase, 0.01% Triton X-100) were added and blended and absorbance at 550-700 nm was measured and used as a prevalue. […] 1 mM choline chloride was diluted with 2× assay buffer up to 7 steps in 2-fold serial dilution, R^1 solution was treated similarly and the absorbance was measured. […]
At 14 days from the bleomycin administration, plasma, BALF and lung tissue were collected. BALF was recovered and the concentration of LPA (18:2) in BALF (FIG. 6) was measured. […]

For the molecule `COc1ccc(-c2cnnc(OC[C@H]3CC[C@H](C(F)(F)F)CC3)c2)nc1[C@H]1C[C@@H]1C(=O)O` [Example 5, (1S,2S)-2-[3-methoxy-6-(6-{[trans-4-(trifluoromethyl)cyclohexyl]methoxy}pyridazin-4-yl)pyridin-2-yl]cyclopropanecarboxylic Acid], the “ATX activity in the plasma” value is “suppressed ATX activity in the plasma completely”.

Source of the values: patent publication US11958812B2, “3, 5-disubstituted pyridine and 3, 5-disubstituted pyridazine derivatives and pharmaceutical use of same” (MITSUBISHI TANABE PHARMA CORPORATION, priority 2018, dated 2024).
